Test: mn = molality of the nth substance listed, in mol/kg
Settings: 74.66 kPa, Liquid; for speed of sound: Frequency=3 MHz, Sing-around technique in a fixed-path interferometer; for mass density: Vibrating tube method

CCCC[N+](CCCC)(C(C)CC)C(C)CC.[Br-] (stereo unspecified) [N-butyl-N,N-bis(1-methylpropyl)-1-butanaminium bromide] + O
Settings	mass density, 278.15 K [kg/m3]	mass density, 283.15 K [kg/m3]	mass density, 288.15 K [kg/m3]	mass density, 293.15 K [kg/m3]	speed of sound, 278.15 K [m/s]	speed of sound, 283.15 K [m/s]	speed of sound, 288.15 K [m/s]	speed of sound, 293.15 K [m/s]	speed of sound, 298.15 K [m/s]
m1 = 0.01181	1000.58	1000.3	999.698	998.799	1431.4	1452	1470.2	1486.2	1500.2
m1 = 0.02026	1001.03	1000.75	1000.13	999.231	1433.3	1453.8	1472	1488	1502.1
m1 = 0.03102	1001.6	1001.32	1000.7	999.791	1435.8	1456.1	1474.1	1489.9	1503.9
m1 = 0.04017	1002.1	1001.81	1001.19	1000.28	1438.2	1458.3	1476	1491.6	1505.3
m1 = 0.05043	1002.66	1002.36	1001.73	1000.81	1440	1459.8	1477.4	1492.9	1506.4
m1 = 0.0598	1003.17	1002.87	1002.24	1001.32	1442.6	1462.2	1479.5	1494.8	1508.4
m1 = 0.06968	1003.71	1003.41	1002.76	1001.84	1445	1464.4	1481.6	1496.6	1509.9
m1 = 0.08191	1004.37	1004.06	1003.42	1002.5	1447.4	1466.7	1483.7	1498.7	1511.8
m1 = 0.09038	1004.85	1004.53	1003.89	1002.96	1450.6	1469.6	1486.4	1501.1	1514
m1 = 0.1036	1005.56	1005.25	1004.59	1003.66	1453.5	1472.2	1488.9	1503.7	1516.5

CCCC[N+](CCCC)(CC(C)C)CC(C)C.[Br-] [N-butyl-N,N-bis(2-methylpropyl)-1-butanaminium bromide] + O
Settings	mass density, 278.15 K [kg/m3]	mass density, 283.15 K [kg/m3]	mass density, 288.15 K [kg/m3]	mass density, 293.15 K [kg/m3]	speed of sound, 278.15 K [m/s]	speed of sound, 283.15 K [m/s]	speed of sound, 288.15 K [m/s]	speed of sound, 293.15 K [m/s]	speed of sound, 298.15 K [m/s]
m1 = 0.01065	1000.5	1000.23	999.628	998.731	1431.7	1452	1469.2	1485.3	1499.3
m1 = 0.01998	1000.98	1000.71	1000.11	999.207	1433.3	1453.7	1471.8	1487.8	1501.8
m1 = 0.0287	1001.44	1001.16	1000.55	999.654	1435.3	1455.5	1473.4	1489.1	1502.9
m1 = 0.03816	1001.92	1001.65	1001.04	1000.13	–	–	–	–	–
m1 = 0.04991	1002.55	1002.27	1001.65	1000.74	1440.2	1460	1477.6	1493	1506.5
m1 = 0.05935	1003.05	1002.75	1002.13	1001.22	1443	1462.6	1479.9	1495.1	1508.5
m1 = 0.06884	1003.54	1003.25	1002.62	1001.71	1446.3	1465.8	1483.1	1498.3	1511.6
m1 = 0.08078	1004.18	1003.88	1003.25	1002.33	1449	1468.1	1485.2	1500.2	1513.4
m1 = 0.0922	1004.77	1004.47	1003.83	1002.91	1451.4	1470.1	1486.8	1501.5	1514.3
m1 = 0.1044	1005.43	1005.11	1004.46	1003.53	1453.6	1472.4	1488.9	1503.4	1516

CC(C)C[N+](CC(C)C)(CC(C)C)CC(C)C.[Br-] [tetra-iso-butyl ammonium bromide] + O
Settings	mass density, 278.15 K [kg/m3]	mass density, 283.15 K [kg/m3]	mass density, 288.15 K [kg/m3]	mass density, 293.15 K [kg/m3]	speed of sound, 278.15 K [m/s]	speed of sound, 283.15 K [m/s]	speed of sound, 288.15 K [m/s]	speed of sound, 293.15 K [m/s]	speed of sound, 298.15 K [m/s]
m1 = 0.01022	1000.51	1000.24	999.634	998.735	–	–	–	–	–
m1 = 0.02021	1001.05	1000.77	1000.16	999.258	1434	1454.4	1472.5	1488.5	1502.6
m1 = 0.02983	1001.57	1001.29	1000.67	999.758	1437	1457	1475	1490.5	1503.3
m1 = 0.03847	1002.04	1001.75	1001.12	1000.21	1438.5	1458.5	1476.2	1491.8	1505.5
m1 = 0.04829	1002.57	1002.27	1001.63	1000.71	1441.3	1461.2	1478.9	1494.5	1508.1
m1 = 0.05621	1002.99	1002.68	1002.04	1001.11	1443.4	1463.6	1480.5	1495.7	1509.7
m1 = 0.06888	1003.67	1003.34	1002.7	1001.76	1447	1466.5	1483.8	1498.9	1512.2
m1 = 0.07666	1004.08	1003.76	1003.1	1002.16	1448.2	1467.5	1484.6	1499.7	1512.9
m1 = 0.08623	1004.6	1004.26	1003.6	1002.64	1451.5	1469.4	1486.2	1500.9	1513.8
m1 = 0.1002	1005.35	1005	1004.33	1003.37	1453.7	1472.5	1489.2	1503.9	1516.7

CCC(C)[N+](C(C)CC)(C(C)CC)C(C)CC.[Br-] (stereo unspecified) [tetra-sec-butyl ammonium bromide] + O
Settings	mass density, 278.15 K [kg/m3]	mass density, 283.15 K [kg/m3]	mass density, 288.15 K [kg/m3]	mass density, 293.15 K [kg/m3]	speed of sound, 278.15 K [m/s]	speed of sound, 283.15 K [m/s]	speed of sound, 288.15 K [m/s]	speed of sound, 293.15 K [m/s]	speed of sound, 298.15 K [m/s]
m1 = 0.009699	1000.43	1000.15	999.553	998.653	1429.9	1450.7	1469	1485.1	1499
m1 = 0.01981	1000.92	1000.64	1000.03	999.127	1432.6	1453.1	1471.2	1487.4	1500.9
m1 = 0.03014	–	–	–	–	1435.2	1455.5	1473.4	1489.2	1503
m1 = 0.04066	1002	1001.68	1001.04	1000.12	1438.2	1458.2	1475.9	1491.5	1505.2
m1 = 0.04983	1002.49	1002.14	1001.5	1000.59	1440.2	1460.1	1477.6	1493.1	1506.5
m1 = 0.0598	1003.02	1002.66	1002	1001.08	1443.3	1463	1480.4	1495.4	1508.3
m1 = 0.07027	1003.58	1003.21	1002.55	1001.63	1445.7	1465.7	1483.2	1497.7	1510.9
m1 = 0.07997	1004.11	1003.75	1003.08	1002.12	1448.5	1468.4	1485	1499.7	1512
m1 = 0.08984	1004.68	1004.31	1003.61	1002.64	1451.4	1471.3	1488	1501.6	1514.2
m1 = 0.1018	1005.32	1004.97	1004.26	1003.28	1454.9	1474.9	1490.9	1504	1516

CCCC[N+](CCCC)(CCCC)CCCC.[Br-] [tetrabutylammonium bromide] + O
Settings	mass density, 278.15 K [kg/m3]	mass density, 283.15 K [kg/m3]	mass density, 288.15 K [kg/m3]	mass density, 293.15 K [kg/m3]	speed of sound, 278.15 K [m/s]	speed of sound, 283.15 K [m/s]	speed of sound, 288.15 K [m/s]	speed of sound, 293.15 K [m/s]	speed of sound, 298.15 K [m/s]
m1 = 0.01142	1000.27	999.991	999.38	998.474	1432	1452.5	1470.9	1487.1	1501.3
m1 = 0.02179	1000.55	1000.26	999.637	998.721	–	–	–	–	–
m1 = 0.02564	1000.66	1000.36	999.733	998.812	1436.7	1457.5	1475.5	1491.3	1504.8
m1 = 0.03767	1000.97	1000.66	1000.02	999.087	1439.6	1459.7	1477.4	1492.9	1506.4
m1 = 0.0459	1001.19	1000.87	1000.23	999.287	1442.7	1462.5	1480.1	1495.5	1508.9
m1 = 0.05856	1001.55	1001.21	1000.54	999.585	1446.1	1465.7	1482.9	1498.1	1511.7
m1 = 0.0711	1001.86	1001.51	1000.83	999.857	1450	1469.4	1486.4	1501.3	1514.3
m1 = 0.07968	1002.09	1001.73	1001.04	1000.05	1453	1472.2	1489.1	1504	1516.9
m1 = 0.09066	1002.42	1002.04	1001.33	1000.34	1455.7	1474.4	1491	1505.4	1517.9
m1 = 0.1003	1002.67	1002.28	1001.54	1000.54	1458	1476.6	1493	1507.3	1519.7

From the NIST ThermoML archive (doi:10.1016/j.jct.2015.03.017)
